Results taken from patent US9480259B2, “Pyrazolopyrans having herbicidal and pharmaceutical properties” (BASF SE, priority 2012, dated 2016).

What follows are compounds tested against Arabidopsis thaliana SHMT (assay: SHMT activity assay (ED50 SHMT), coupled with N5,N10-CH2-THF dehydrogenase, NADH at 340 nm). Conditions: Arabidopsis thaliana SHMT enzyme assay; values given as upper bounds.
Format: biochemical
In short: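 His-tagged SHMT purified on Ni-NTA. NADH formation followed at 340 nm for 30 min; ED50 from inhibition of initial velocity.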

SMILES	EC50
Cc1n[nH]c2c1C(c1ccc(CCCc3nnn[nH]3)c(Cl)c1)(C1CCC1)C(C#N)=C(N)O2 (stereo not drawn) [Compound 2.678]	< 0.01 µM
Cc1n[nH]c2c1C(c1cc(Cl)cc(Cl)c1)(C1CC(F)C1)C(C#N)=C(N)O2 (stereo not drawn) [Compound 2.674]	< 0.01 µM
Cc1n[nH]c2c1C(c1cc(C#N)cc(Cc3nnn[nH]3)c1)(C(C)C)C(C#N)=C(N)O2 (stereo not drawn) [Compound 2.738]	< 0.1 µM
Cc1n[nH]c2c1C(c1cc(C#N)cc(N(C)Cc3nnn[nH]3)c1)(C1CCC1)C(C#N)=C(N)O2 (stereo not drawn) [Compound 2.691]	< 0.1 µM
COC(=O)c1ccc(-c2cc(C#N)cc(C3(C(C)C)C(C#N)=C(N)Oc4[nH]nc(C)c43)c2)o1 (stereo not drawn) [Compound 2.706]	< 0.01 µM

Same assay, conditions: Table 2, Arabidopsis thaliana SHMT enzyme assay; values given as upper bounds

SMILES	EC50
Cc1ccc(Oc2cc(Cl)cc(C3(C4CCC4)C(C#N)=C(N)Oc4[nH]nc(C)c43)c2)cc1 (stereo not drawn) [Compound 2.240]	< 0.01 µM
N#CC1=C(N)Oc2[nH]ncc2C1(c1cc(C#N)cc(C(=O)OCc2ccccc2)c1)C1CCC1 (stereo not drawn) [Compound 2.369]	< 0.01 µM
Cc1n[nH]c2c1C(c1cc(C#N)cc(C(=O)O)c1)(C1CCC1)C(C#N)=C(N)O2 (stereo not drawn) [Compound 2.371]	< 1 µM
N#CC1=C(N)Oc2[nH]ncc2C1(c1cc(I)cc(I)c1)C1CCC1 (stereo not drawn) [Compound 2.309]	< 0.01 µM
Cc1n[nH]c2c1C(c1cc(C#N)cc(-c3ccsc3)c1)(C1CCC1)C(C#N)=C(N)O2 (stereo not drawn) [Compound 2.329]	< 0.01 µM
COc1c(Cl)cc(C2(C3CCC3)C(C#N)=C(N)Oc3[nH]ncc32)cc1Cl (stereo not drawn) [Compound 2.293]	< 0.01 µM
Cc1n[nH]c2c1C(c1cc(C#N)cc(-c3ccsc3Cl)c1)(C1CCC1)C(C#N)=C(N)O2 (stereo not drawn) [Compound 2.363]	< 0.01 µM
CC(C)C1(c2cc(Br)cc(Br)c2)C(C#N)=C(N)Oc2[nH]ncc21 (stereo not drawn) [Compound 2.287]	< 0.01 µM
N#CC1=C(N)Oc2[nH]ncc2C1(c1cccc(SC(F)(F)F)c1)C1CCC1 (stereo not drawn) [Compound 2.297]	< 0.1 µM
Cc1n[nH]c2c1C(c1cc(Cl)cc(C(F)(F)F)c1)(C1CCC1)C(C#N)=C(N)O2 (stereo not drawn) [Compound 2.221]	< 0.01 µM
COc1cccc(Oc2cc(Cl)cc(C3(C4CCC4)C(C#N)=C(N)Oc4[nH]nc(C)c43)c2)c1 (stereo not drawn) [Compound 2.238]	< 0.01 µM
COc1ccc(Oc2cc(Cl)cc(C3(C4CCC4)C(C#N)=C(N)Oc4[nH]nc(C)c43)c2)cc1 (stereo not drawn) [Compound 2.344]	< 0.01 µM
COc1n[nH]c2c1C(c1cc(Br)cc(C#N)c1)(C1CCC1)C(C#N)=C(N)O2 (stereo not drawn) [Compound 2.388]	< 0.01 µM
Cc1n[nH]c2c1C(c1cc(Cl)cc(C(F)(F)F)c1)(C(C)C)C(C#N)=C(N)O2 (stereo not drawn) [Compound 2.316]	< 0.01 µM
COc1n[nH]c2c1C(c1cc(C#N)cc(C(F)(F)F)c1)(C1CC1)C(C#N)=C(N)O2 (stereo not drawn) [Compound 2.392]	< 0.1 µM
Cc1n[nH]c2c1C(c1cc(C#N)cc(-c3cc(Cl)sc3Cl)c1)(C1CCC1)C(C#N)=C(N)O2 (stereo not drawn) [Compound 2.364]	< 0.01 µM

Same assay, conditions: Table 2; values given as upper bounds

SMILES	EC50
COc1ccc(-c2cc(C#N)cc(C3(C4CCC4)C(C#N)=C(N)Oc4[nH]nc(C)c43)c2)cc1C(F)(F)F (stereo not drawn) [Compound 2.547]	< 0.01 µM
COC(=O)c1cc(-c2cc(C#N)cc(C3(C4CCC4)C(C#N)=C(N)Oc4[nH]nc(C)c43)c2)ccc1C(=O)O (stereo not drawn) [Compound 2.572]	< 0.1 µM
CCC1(c2cccc(C(F)(F)F)c2)C(C#N)=C(N)Oc2[nH]nc(C)c21 (stereo not drawn) [Compound 2.31.]	< 1 µM
Cc1n[nH]c2c1C(c1cc(Cl)cc(Oc3ccc(O)cc3[N+](=O)[O-])c1)(C1CCC1)C(C#N)=C(N)O2 (stereo not drawn) [Compound 2.481]	< 0.01 µM
Cc1n[nH]c2c1C(CCC(F)(F)F)(c1cccc(C(F)(F)F)c1)C(C#N)=C(N)O2 (stereo not drawn) [Compound 2.101.]	< 10 µM
CCCCC1(c2cccc(Cl)c2)C(C#N)=C(N)Oc2[nH]nc(C)c21 (racemic) [Compound 2.91.]	< 10 µM
CCc1n[nH]c2c1C(c1ccc(Cl)cc1)(C1CCC1)C(C#N)=C(N)O2 (stereo not drawn) [Compound 2.139.]	< 1 µM
Cc1n[nH]c2c1C(c1cc(C#N)cc(-c3ccc(O)c(C(F)(F)F)c3)c1)(C1CCC1)C(C#N)=C(N)O2 (stereo not drawn) [Compound 2.459]	< 0.01 µM
Cc1n[nH]c2c1C(c1cc(F)cc(Cl)c1)(C1CCC1)C(C#N)=C(N)O2 (stereo not drawn) [Compound 2.157.]	< 0.1 µM
COc1c(C#N)cc(C2(C3CCC3)C(C#N)=C(N)Oc3[nH]nc(C)c32)cc1C(F)(F)F (stereo not drawn) [Compound 2.491]	< 0.01 µM
Cc1n[nH]c2c1C(c1cc(O)cc(C#N)c1)(C1CCC1)C(C#N)=C(N)O2 (stereo not drawn) [Compound 2.626]	< 0.1 µM
CCCC1(c2cc(Cl)cc(C#N)c2)C(C#N)=C(N)Oc2[nH]nc(COC)c21 (stereo not drawn) [Compound 2.591]	< 10 µM
COC(=O)c1cccc(-c2cc(C#N)cc(C3(C4CCC4)C(C#N)=C(N)Oc4[nH]nc(C)c43)c2)c1 (stereo not drawn) [Compound 2.453]	< 0.01 µM
Cc1n[nH]c2c1C(c1cccc(Cl)c1)(C1CCCC1)C(C#N)=C(N)O2 (stereo not drawn) [Compound 2.211.]	< 0.1 µM
COc1ccc(C2(C(C)C)C(C#N)=C(N)Oc3[nH]nc(C4CC4)c32)cc1Cl (stereo not drawn) [Compound 2.148.]	< 1 µM
Cc1n[nH]c2c1C(c1cc(Cl)cc(-c3cccc(C#N)c3)c1)(C1CCC1)C(C#N)=C(N)O2 (stereo not drawn) [Compound 2.512]	< 0.01 µM
COC(=O)c1cc(-c2cc(Cl)cc(C3(C4CCC4)C(C#N)=C(N)Oc4[nH]nc(C)c43)c2)ccc1Cl (racemic) [Compound 2.514]	< 0.01 µM
COc1ccc(C2(C3CC3)C(C#N)=C(N)Oc3[nH]nc(C)c32)cc1Cl (stereo not drawn) [Compound 2.149.]	< 0.1 µM
COc1ccc(C2(C3CCC3)C(C#N)=C(N)Oc3[nH]nc(C)c32)cc1C(F)(F)F (stereo not drawn) [Compound 2.176.]	< 0.01 µM
N#CC1=C(N)Oc2[nH]nc(C(F)F)c2C1(c1cccc(C#N)c1)C1CCC1 (stereo not drawn) [Compound 2.194.]	< 1 µM
CCC1(c2cc(F)c(F)c(F)c2)C(C#N)=C(N)Oc2[nH]nc(C)c21 (stereo not drawn) [Compound 2.18.]	< 1 µM
CCc1n[nH]c2c1C(c1cc(Cl)cc(Cl)c1)(C1CCC1)C(C#N)=C(N)O2 (stereo not drawn) [Compound 2.155.]	< 0.1 µM
CCC1(c2ccc(OC)cc2)C(C#N)=C(N)Oc2[nH]nc(C)c21 (stereo not drawn) [Compound 2.22.]	< 1 µM
Cc1n[nH]c2c1C(c1cc(Cl)cc(NS(=O)(=O)c3ccccc3)c1)(C1CCC1)C(C#N)=C(N)O2 (stereo not drawn) [Compound 2.490]	< 0.01 µM

SMILES	EC50
CCC1(c2cc(Cl)cc(Cl)c2)C(C#N)=C(N)Oc2[nH]ncc21 (stereo not drawn) [Compound 2.62.]	< 10 µM
CCC1(c2cccc(Oc3ccccc3)c2)C(C#N)=C(N)Oc2[nH]nc(C)c21 (stereo not drawn) [Compound 2.1.]	< 0.1 µM
CCC1(c2cc(C(F)(F)F)cc(C(F)(F)F)c2)C(C#N)=C(N)Oc2[nH]nc(C(F)F)c21 (stereo not drawn) [Compound 2.166.]	< 0.1 µM
Cc1n[nH]c2c1C(c1cc(Cl)cc(Cl)c1)(C1CCC1)C(C#N)=C(N)O2 (stereo not drawn) [Compound 2.154.]	< 0.01 µM
CCC1(c2cc(Br)cc(C#N)c2)C(C#N)=C(N)Oc2[nH]nc(OC)c21 (stereo not drawn) [Compound 2.601]	< 1 µM
Cc1n[nH]c2c1C(c1cc(Cl)cc(-c3cccc(NS(C)(=O)=O)c3)c1)(C1CCC1)C(C#N)=C(N)O2 (racemic) [Compound 2.527]	< 0.01 µM
Cc1n[nH]c2c1C(c1cc(Cl)cc(CC#N)c1)(C1CCC1)C(C#N)=C(N)O2 (stereo not drawn) [Compound 2.568]	< 0.01 µM
CCC1(c2ccc(F)c(Oc3ccccc3)c2)C(C#N)=C(N)Oc2[nH]nc(C)c21 (stereo not drawn) [Compound 2.11.]	< 1 µM
CCC1(c2cccc(C)c2)C(C#N)=C(N)Oc2[nH]nc(C)c21 (racemic) [Compound 2.42.]	< 10 µM
Cc1n[nH]c2c1C(c1ccc(CC(=O)O)c(C#N)c1)(C1CCC1)C(C#N)=C(N)O2 (racemic) [Compound 2.541]	< 1 µM
CCC1(c2ccc(C(F)(F)F)c(F)c2)C(C#N)=C(N)Oc2[nH]nc(C)c21 (stereo not drawn) [Compound 2.29.]	< 10 µM
CCC1(c2cc(C#N)cc(C(F)(F)F)c2)C(C#N)=C(N)Oc2[nH]nc(C)c21 (racemic) [Compound 2.530]	< 0.01 µM
N#CC1=C(N)Oc2[nH]ncc2C1(c1cccc(C(F)(F)F)c1)C1CCC1 (stereo not drawn) [Compound 2.195.]	< 1 µM
CCOC(=O)COc1cc(Br)cc(C2(C3(F)CC3)C(C#N)=C(N)Oc3[nH]nc(C)c32)c1 (stereo not drawn) [Compound 2.479]	< 0.1 µM
Cc1n[nH]c2c1C(c1cc(C#N)cc(N(C)C(=O)c3ccc(C(=O)O)cc3)c1)(C1CCC1)C(C#N)=C(N)O2 (stereo not drawn) [Compound 2.634]	< 0.1 µM
CCC1(c2ccc(OC(F)F)cc2)C(C#N)=C(N)Oc2[nH]nc(C)c21 (stereo not drawn) [Compound 2.32.]	< 10 µM
Cc1n[nH]c2c1C(c1cc(Cl)cc(OCCC(=O)O)c1)(C1CCC1)C(C#N)=C(N)O2 (racemic) [Compound 2.505]	< 0.01 µM
Cc1n[nH]c2c1C(c1cccc(-c3cccc(C(=O)O)c3)c1)(C1CCC1)C(C#N)=C(N)O2 (stereo not drawn) [Compound 2.494]	< 0.1 µM
COC(=O)c1cc(C(=O)OC)cc(-c2cc(C#N)cc(C3(C4CCC4)C(C#N)=C(N)Oc4[nH]nc(C)c43)c2)c1 (stereo not drawn) [Compound 2.549]	< 0.1 µM
N#CC1=C(N)Oc2[nH]nc(C(F)F)c2C1(c1cc(Cl)cc(Cl)c1)C1CCC1 (stereo not drawn) [Compound 2.168.]	< 0.1 µM
Cc1n[nH]c2c1C(c1ccc(Cl)c(Cl)c1)(C1CCC1)C(C#N)=C(N)O2 (stereo not drawn) [Compound 2.193.]	< 0.01 µM
COC(=O)c1ccc(-c2cc(Cl)cc(C3(C4CCC4)C(C#N)=C(N)Oc4[nH]nc(C)c43)c2)cc1 (stereo not drawn) [Compound 2.458]	< 0.1 µM
Cc1n[nH]c2c1C(c1cc(Cl)cc(Cl)c1)(C1(F)CC1)C(C#N)=C(N)O2 (stereo not drawn) [Compound 2.214.]	< 0.01 µM

Same assay, conditions: inhibition of initial velocity of Arabidopsis thaliana SHMT

SMILES	EC50
Cc1n[nH]c2c1C(c1cc(-c3ccccc3)cs1)(C1CCC1)C(C#N)=C(N)O2 (stereo not drawn) [Compound 4.24]	< 0.01 µM
Cc1n[nH]c2c1C(c1ccc(-c3cccc(Cl)c3)s1)(C1CCC1)C(C#N)=C(N)O2 (stereo not drawn) [Compound 4.6]	< 0.01 µM
Cc1n[nH]c2c1C(c1cc3c(C(F)(F)F)cccc3s1)(C1CCC1)C(C#N)=C(N)O2 (stereo not drawn) [Compound 4.38]	< 0.01 µM
Cc1n[nH]c2c1C(c1ccc(-c3cccc(F)c3)s1)(C1CCC1)C(C#N)=C(N)O2 (stereo not drawn) [Compound 4.14]	< 0.01 µM
